What was measured:
[1] = target: T1, Alpha-1B adrenergic receptor (Rattus norvegicus, UniProt P15823); assay: DRUGMATRIX: Alpha-1B adrenergic receptor radioligand binding (ligand: prazosin); type: cell membranes, Wistar, Liver, Membrane; details: Not Active = under 50% inhibition at 10 µM
T1 sequence (P15823 whole entry): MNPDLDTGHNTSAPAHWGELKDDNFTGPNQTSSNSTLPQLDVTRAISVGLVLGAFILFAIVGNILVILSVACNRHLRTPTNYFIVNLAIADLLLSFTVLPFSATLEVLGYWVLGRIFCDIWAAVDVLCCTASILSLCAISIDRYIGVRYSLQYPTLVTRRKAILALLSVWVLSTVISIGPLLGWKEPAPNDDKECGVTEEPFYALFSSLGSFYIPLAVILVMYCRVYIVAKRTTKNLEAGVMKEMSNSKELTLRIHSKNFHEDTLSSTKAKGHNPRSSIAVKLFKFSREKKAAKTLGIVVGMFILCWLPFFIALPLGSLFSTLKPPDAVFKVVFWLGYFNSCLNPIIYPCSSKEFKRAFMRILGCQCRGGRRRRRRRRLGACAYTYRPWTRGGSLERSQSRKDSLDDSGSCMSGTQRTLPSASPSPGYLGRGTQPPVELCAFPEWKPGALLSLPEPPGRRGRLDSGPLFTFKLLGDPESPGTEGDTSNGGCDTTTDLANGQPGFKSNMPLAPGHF

Carbonic anhydrase 2 = Carbonic anhydrase 2 (Homo sapiens, UniProt P00918); assay: DRUGMATRIX: Carbonic Anhydrase II enzyme inhibition (substrate: 4-Nitrophenyl acetate (4-NPA)); type: tissue-based, Erythrocyte; details: erythrocyte; Not Active = under 50% inhibition at 10 µM
[2] = target: Prostaglandin G/H synthase 1 (Homo sapiens, UniProt P23219); assay: biochemical; type: tissue-based, Platelet; details: platelet;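 further: inhibition of COX-1 enzyme activity, with arachidonic acid supplied as substrate; in other assays of this panel Not Active means under 50% inhibition at 10 µM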
[3] = target: cGMP-specific 3',5'-cyclic phosphodiesterase (Homo sapiens, UniProt O76074); assay: DRUGMATRIX: Phosphodiesterase PDE5 enzyme inhibition (substrate: [3H]cGMP + cGMP); type: tissue-based, Platelet; details: platelet; Not Active = under 50% inhibition at 10 µM
[4] = target: 5-hydroxytryptamine receptor 1B (Rattus norvegicus, UniProt P28564); type: cell membranes, Wistar, Cerebral cortex, Membrane; further: in other assays of this panel Not Active means under 50% inhibition at 10 µM
Cytochrome P450 2C19 = Cytochrome P450 2C19 (Homo sapiens, UniProt P33261); details: bti-tn-5b1-4; further: in other assays of this panel Not Active means under 50% inhibition at 10 µM
Cytochrome P450 2C9 = Cytochrome P450 2C9 (Homo sapiens, UniProt P11712); details: bti-tn-5b1-4; further: in other assays of this panel Not Active means under 50% inhibition at 10 µM
Chain of Cytochrome P450 2C9 (P11712 whole entry): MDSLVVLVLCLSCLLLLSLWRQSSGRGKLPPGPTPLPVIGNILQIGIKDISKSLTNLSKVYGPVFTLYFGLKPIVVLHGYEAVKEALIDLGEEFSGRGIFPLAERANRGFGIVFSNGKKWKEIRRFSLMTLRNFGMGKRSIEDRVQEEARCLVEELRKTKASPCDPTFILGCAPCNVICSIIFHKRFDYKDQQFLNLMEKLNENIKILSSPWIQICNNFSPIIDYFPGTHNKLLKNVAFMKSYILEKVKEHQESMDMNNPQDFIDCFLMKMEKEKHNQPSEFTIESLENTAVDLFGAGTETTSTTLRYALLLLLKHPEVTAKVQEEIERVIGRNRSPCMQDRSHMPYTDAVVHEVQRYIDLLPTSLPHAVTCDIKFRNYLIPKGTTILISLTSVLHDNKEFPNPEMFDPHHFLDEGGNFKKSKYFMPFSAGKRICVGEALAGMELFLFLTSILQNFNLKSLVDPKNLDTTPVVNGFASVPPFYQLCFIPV

Chain of Prostaglandin G/H synthase 1 (P23219 whole entry): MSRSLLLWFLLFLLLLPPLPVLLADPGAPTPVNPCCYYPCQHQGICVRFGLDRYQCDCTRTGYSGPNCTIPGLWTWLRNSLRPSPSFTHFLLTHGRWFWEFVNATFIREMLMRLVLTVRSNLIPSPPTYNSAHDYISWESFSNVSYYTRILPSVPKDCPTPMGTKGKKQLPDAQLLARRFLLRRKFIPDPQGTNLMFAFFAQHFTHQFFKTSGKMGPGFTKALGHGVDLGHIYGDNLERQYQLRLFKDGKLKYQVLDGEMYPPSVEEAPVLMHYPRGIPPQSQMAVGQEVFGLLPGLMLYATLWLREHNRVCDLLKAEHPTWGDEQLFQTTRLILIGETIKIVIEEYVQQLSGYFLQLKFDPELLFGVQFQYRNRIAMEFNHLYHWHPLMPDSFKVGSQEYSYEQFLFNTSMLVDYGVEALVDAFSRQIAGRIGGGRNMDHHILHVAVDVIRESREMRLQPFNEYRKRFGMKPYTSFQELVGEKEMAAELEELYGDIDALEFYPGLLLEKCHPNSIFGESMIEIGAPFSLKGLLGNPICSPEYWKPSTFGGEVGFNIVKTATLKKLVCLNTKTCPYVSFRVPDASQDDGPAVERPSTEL
Chain of Cytochrome P450 2C19 (P33261 whole entry): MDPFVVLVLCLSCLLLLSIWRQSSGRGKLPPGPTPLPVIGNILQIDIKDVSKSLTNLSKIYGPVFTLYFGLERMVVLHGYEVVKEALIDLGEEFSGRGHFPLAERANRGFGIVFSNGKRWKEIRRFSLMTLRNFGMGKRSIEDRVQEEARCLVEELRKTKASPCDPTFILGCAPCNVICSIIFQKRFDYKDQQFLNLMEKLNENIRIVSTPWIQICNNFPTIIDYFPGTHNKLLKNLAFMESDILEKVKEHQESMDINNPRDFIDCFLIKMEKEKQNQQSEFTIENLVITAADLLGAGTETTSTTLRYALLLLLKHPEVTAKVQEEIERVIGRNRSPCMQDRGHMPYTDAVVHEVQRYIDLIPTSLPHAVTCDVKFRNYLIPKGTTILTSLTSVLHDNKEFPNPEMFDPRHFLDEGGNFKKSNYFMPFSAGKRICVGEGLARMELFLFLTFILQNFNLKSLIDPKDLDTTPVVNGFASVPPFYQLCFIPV
Chain of 5-hydroxytryptamine receptor 1B (P28564 whole entry): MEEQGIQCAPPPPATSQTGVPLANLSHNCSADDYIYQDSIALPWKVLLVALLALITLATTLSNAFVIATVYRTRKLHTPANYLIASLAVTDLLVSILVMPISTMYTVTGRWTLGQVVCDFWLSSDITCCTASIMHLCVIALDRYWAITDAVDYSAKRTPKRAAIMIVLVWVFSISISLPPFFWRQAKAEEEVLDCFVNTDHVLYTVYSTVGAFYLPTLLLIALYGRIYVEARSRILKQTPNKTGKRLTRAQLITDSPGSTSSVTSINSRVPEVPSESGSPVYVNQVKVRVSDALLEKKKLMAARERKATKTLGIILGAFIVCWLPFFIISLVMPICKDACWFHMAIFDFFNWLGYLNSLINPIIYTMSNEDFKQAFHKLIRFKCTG

Compound	IC50 [1]	IC50 (Carbonic anhydrase 2)	IC50 [2]	IC50 [3]	IC50 [4]	IC50 (Cytochrome P450 2C19)	Ki (Cytochrome P450 2C19)	IC50 (Cytochrome P450 2C9)	Ki (Cytochrome P450 2C9)	Ki [1]	Ki (Carbonic anhydrase 2)	Ki [2]	Ki [3]	Ki [4]	IC50 ([1]; read-out: IC50)	Ki ([1]; read-out: Ki)	IC50 ([4]; read-out: IC50)	Ki ([4]; read-out: Ki)
O=C1CN(/N=C/c2ccc([N+](=O)[O-])o2)C(=O)N1 [NITROFURANTOIN]	Not Active	Not Active	Not Active	Not Active	Not Active	Not Active	Not Active	Not Active	Not Active	–	–	–	–	–	–	–	–	–
CC12CCC(CC1=O)C2(C)C (configuration not stated) [CAMPHOR]	Not Active	Not Active	Not Active	Not Active	Not Active	Not Active	Not Active	Not Active	Not Active	–	–	–	–	–	–	–	–	–
Cc1c(N)nc([C@H](CC(N)=O)NC[C@H](N)C(N)=O)nc1C(=O)N[C@H](C(=O)N[C@H](C)[C@@H](O)[C@H](C)C(=O)N[C@H](C(=O)NCCc1nc(-c2nc(C(=O)NCCC[S+](C)C)cs2)cs1)[C@@H](C)O)[C@@H](O[C@@H]1O[C@@H](CO)[C@@H](O)[C@H](O)[C@@H]1O[C@H]1O[C@H](CO)[C@@H](O)[C@H](OC(N)=O)[C@@H]1O)c1c[nH]cn1.[Br-] [BLEOMYCIN A2]	Not Active	Not Active	Not Active	Not Active	Not Active	Not Active	Not Active	Not Active	Not Active	–	–	–	–	–	–	–	–	–
CN(Cc1cc(Br)cc(Br)c1N)C1CCCCC1 [BROMHEXINE]	Not Active	Not Active	Not Active	Not Active	Not Active	Not Active	Not Active	Not Active	Not Active	–	–	–	–	–	–	–	–	–
COPPER(II) OXIDE	Not Active	Not Active	Not Active	Not Active	Not Active	Not Active	Not Active	Not Active	Not Active	Not Active	Not Active	Not Active	Not Active	Not Active	–	–	–	–
CC(CN1c2ccccc2Sc2ccccc21)N(C)C (configuration not stated) [PROMETHAZINE]	–	Not Active	Not Active	Not Active	Not Active	Not Active	Not Active	Not Active	Not Active	–	–	–	–	–	39 nM	21 nM	–	–
NC(N)=Nc1nc(CSCCC(N)=NS(N)(=O)=O)cs1 [FAMOTIDINE]	Not Active	Not Active	Not Active	Not Active	Not Active	Not Active	Not Active	Not Active	Not Active	–	–	–	–	–	–	–	–	–
CC(C)(c1ccc(O)cc1)c1ccc(O)cc1 [BISPHENOL A]	Not Active	Not Active	Not Active	Not Active	Not Active	Not Active	Not Active	Not Active	Not Active	–	–	–	–	–	–	–	–	–
c1ccc2sc(SSc3nc4ccccc4s3)nc2c1 [BENZOTHIAZYL DISULFIDE]	Not Active	Not Active	Not Active	Not Active	Not Active	Not Active	Not Active	Not Active	Not Active	–	–	–	–	–	–	–	–	–
CC(=O)Nc1ccc2c(c1)Cc1ccccc1-2 [2-ACETYLAMINOFLUORENE]	Not Active	Not Active	Not Active	Not Active	Not Active	Not Active	Not Active	Not Active	Not Active	–	–	–	–	–	–	–	–	–
c1ccc(Cn2ccnc2)cc1	Not Active	Not Active	Not Active	Not Active	Not Active	Not Active	Not Active	Not Active	Not Active	–	–	–	–	–	–	–	–	–
Nc1ccc(Cc2ccc(N)cc2)cc1	Not Active	Not Active	Not Active	Not Active	Not Active	Not Active	Not Active	Not Active	Not Active	–	–	–	–	–	–	–	–	–
CC(N)Cc1c[nH]c2ccc(OCc3cccs3)cc12 (configuration not stated) [BW-723C86]	Not Active	Not Active	Not Active	Not Active	–	Not Active	Not Active	Not Active	Not Active	–	–	–	–	–	–	–	421 nM	400 nM
CCO [ALCOHOL]	Not Active	Not Active	Not Active	Not Active	Not Active	Not Active	Not Active	Not Active	Not Active	–	–	–	–	–	–	–	–	–
Nc1nc(N)c2nc(CNc3ccc(C(=O)N[C@@H](CCC(=O)O)C(=O)O)cc3)cnc2n1 [AMINOPTERIN]	Not Active	Not Active	Not Active	Not Active	Not Active	Not Active	Not Active	Not Active	Not Active	–	–	–	–	–	–	–	–	–
CC(C)Cn1cnc2c(N)nc3ccccc3c21 [IMIQUIMOD]	Not Active	Not Active	Not Active	Not Active	Not Active	Not Active	Not Active	Not Active	Not Active	–	–	–	–	–	–	–	–	–
C[N+](C)(C)CCOP(=O)([O-])OC[C@H](O)CO	Not Active	Not Active	Not Active	Not Active	Not Active	Not Active	Not Active	Not Active	Not Active	–	–	–	–	–	–	–	–	–
OC[C@H]1O[C@@H]2O[C@H]3[C@H](O)[C@@H](O)[C@@H](O[C@H]4[C@H](O)[C@@H](O)[C@@H](O[C@H]5[C@H](O)[C@@H](O)[C@@H](O[C@H]6[C@H](O)[C@@H](O)[C@@H](O[C@H]7[C@H](O)[C@@H](O)[C@@H](O[C@H]8[C@H](O)[C@@H](O)[C@@H](O[C@H]1[C@H](O)[C@H]2O)O[C@@H]8CO)O[C@@H]7CO)O[C@@H]6CO)O[C@@H]5CO)O[C@@H]4CO)O[C@@H]3CO [BETADEX]	Not Active	Not Active	Not Active	Not Active	Not Active	Not Active	Not Active	Not Active	Not Active	–	–	–	–	–	–	–	–	–
CARBOXYMETHYLCELLULOSE	Not Active	Not Active	Not Active	Not Active	Not Active	Not Active	Not Active	Not Active	Not Active	Not Active	Not Active	Not Active	Not Active	Not Active	–	–	–	–
O=C(O)COC(=O)Cc1ccccc1Nc1c(Cl)cccc1Cl [ACECLOFENAC]	Not Active	Not Active	Not Active	Not Active	Not Active	Not Active	Not Active	Not Active	Not Active	–	–	–	–	–	–	–	–	–
COc1ccc(C[C@H](N)C(=O)N[C@H]2[C@@H](O)[C@H](n3cnc4c(N(C)C)ncnc43)O[C@@H]2CO)cc1 [PUROMYCIN]	Not Active	Not Active	Not Active	Not Active	Not Active	Not Active	Not Active	Not Active	Not Active	–	–	–	–	–	–	–	–	–
O=C(O)c1ccccc1 [BENZOIC ACID]	Not Active	Not Active	Not Active	Not Active	Not Active	Not Active	Not Active	Not Active	Not Active	–	–	–	–	–	–	–	–	–
Oc1ccccc1 [PHENOL]	Not Active	Not Active	Not Active	Not Active	Not Active	Not Active	Not Active	Not Active	Not Active	–	–	–	–	–	–	–	–	–
C[C@H](C(=O)O)c1ccc2oc(-c3ccc(F)cc3)nc2c1 [FLUNOXAPROFEN]	Not Active	Not Active	Not Active	Not Active	Not Active	Not Active	Not Active	Not Active	Not Active	–	–	–	–	–	–	–	–	–
C[C@@H]1[C@H](O)[C@@H](C)/C=C/C=C/C=C/C=C/C=C/C=C/C=C/[C@H](O[C@@H]2O[C@H](C)[C@@H](O)[C@H](N)[C@@H]2O)C[C@@H]2O[C@](O)(C[C@@H](O)C[C@@H](O)[C@H](O)CC[C@@H](O)C[C@@H](O)CC(=O)O[C@H]1C)C[C@H](O)[C@H]2C(=O)O [AMPHOTERICIN B]	Not Active	Not Active	Not Active	Not Active	Not Active	Not Active	Not Active	Not Active	Not Active	–	–	–	–	–	–	–	–	–

From ChEMBL document CHEMBL1909046, “DrugMatrix in vitro pharmacology data”
